Measurements published in BindingDB's records for PubMed 20126400 (University of Oklahoma, 2010).

Columns and labels:
Assay in all cases: Ray2010 Assay 74
[1] = target: T1, 5-hydroxytryptamine receptor 1A (Homo sapiens, UniProt P08908)
T1 sequence (P08908 whole entry): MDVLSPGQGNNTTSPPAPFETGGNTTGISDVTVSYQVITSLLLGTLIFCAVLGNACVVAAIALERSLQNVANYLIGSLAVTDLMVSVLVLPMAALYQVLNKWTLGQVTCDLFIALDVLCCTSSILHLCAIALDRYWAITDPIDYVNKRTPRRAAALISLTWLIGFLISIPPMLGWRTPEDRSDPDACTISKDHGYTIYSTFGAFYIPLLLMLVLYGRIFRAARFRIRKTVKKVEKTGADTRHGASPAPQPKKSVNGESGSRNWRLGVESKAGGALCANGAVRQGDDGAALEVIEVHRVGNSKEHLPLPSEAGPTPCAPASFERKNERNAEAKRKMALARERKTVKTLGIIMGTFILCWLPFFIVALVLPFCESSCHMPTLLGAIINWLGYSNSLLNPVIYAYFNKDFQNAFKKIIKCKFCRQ
Text: (§1) Table S2 shows raw Ki data for the current study combined with data collected from the literature for the ten additional compounds.

[2] = target: 5-hydroxytryptamine receptor 1D (Homo sapiens, UniProt P28221)
Sequence of 5-hydroxytryptamine receptor 1D (P28221 whole entry): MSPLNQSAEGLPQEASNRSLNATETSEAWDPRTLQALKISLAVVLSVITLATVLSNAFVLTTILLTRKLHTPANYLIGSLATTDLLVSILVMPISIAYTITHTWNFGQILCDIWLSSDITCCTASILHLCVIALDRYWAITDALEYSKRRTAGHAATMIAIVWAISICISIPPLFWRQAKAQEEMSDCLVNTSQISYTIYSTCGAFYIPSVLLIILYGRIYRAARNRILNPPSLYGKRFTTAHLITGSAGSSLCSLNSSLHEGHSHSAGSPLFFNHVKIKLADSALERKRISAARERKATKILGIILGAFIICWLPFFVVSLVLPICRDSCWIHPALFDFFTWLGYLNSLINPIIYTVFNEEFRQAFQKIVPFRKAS
Text: as §1

[3] = target: 5-hydroxytryptamine receptor 2B (Homo sapiens, UniProt P41595)
Sequence of 5-hydroxytryptamine receptor 2B (P41595 whole entry): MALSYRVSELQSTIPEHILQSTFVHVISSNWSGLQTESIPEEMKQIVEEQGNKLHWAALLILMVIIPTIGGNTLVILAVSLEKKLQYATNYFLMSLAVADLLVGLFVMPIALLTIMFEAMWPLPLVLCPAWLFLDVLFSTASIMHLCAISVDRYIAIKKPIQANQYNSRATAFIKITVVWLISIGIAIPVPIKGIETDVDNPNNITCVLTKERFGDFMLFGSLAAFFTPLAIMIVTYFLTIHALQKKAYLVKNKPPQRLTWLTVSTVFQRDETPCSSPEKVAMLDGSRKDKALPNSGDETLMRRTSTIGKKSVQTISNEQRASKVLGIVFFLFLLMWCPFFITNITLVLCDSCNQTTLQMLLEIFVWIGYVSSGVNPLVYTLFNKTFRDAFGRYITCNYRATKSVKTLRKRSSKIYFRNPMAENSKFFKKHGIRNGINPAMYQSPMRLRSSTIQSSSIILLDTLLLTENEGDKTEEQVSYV
Text: as §1

[4] = target: T2, 5-hydroxytryptamine receptor 3A (Homo sapiens, UniProt P46098)
T2 sequence (P46098 whole entry): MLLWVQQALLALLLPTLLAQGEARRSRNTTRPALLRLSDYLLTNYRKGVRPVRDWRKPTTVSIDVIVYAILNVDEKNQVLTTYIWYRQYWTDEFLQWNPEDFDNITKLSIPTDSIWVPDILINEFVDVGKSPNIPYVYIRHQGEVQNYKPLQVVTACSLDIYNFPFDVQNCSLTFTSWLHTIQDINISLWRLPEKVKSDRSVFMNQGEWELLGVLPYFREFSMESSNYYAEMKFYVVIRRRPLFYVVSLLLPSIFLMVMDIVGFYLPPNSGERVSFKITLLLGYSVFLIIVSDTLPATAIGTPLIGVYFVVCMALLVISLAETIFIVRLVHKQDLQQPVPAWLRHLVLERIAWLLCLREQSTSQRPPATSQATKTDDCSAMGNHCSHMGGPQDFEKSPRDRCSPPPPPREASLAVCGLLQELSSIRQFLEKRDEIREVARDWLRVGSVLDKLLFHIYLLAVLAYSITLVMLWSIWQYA
Text: as §1

[5] = target: 5-hydroxytryptamine receptor 6 (Homo sapiens, UniProt P50406)
Sequence of 5-hydroxytryptamine receptor 6 (P50406 whole entry): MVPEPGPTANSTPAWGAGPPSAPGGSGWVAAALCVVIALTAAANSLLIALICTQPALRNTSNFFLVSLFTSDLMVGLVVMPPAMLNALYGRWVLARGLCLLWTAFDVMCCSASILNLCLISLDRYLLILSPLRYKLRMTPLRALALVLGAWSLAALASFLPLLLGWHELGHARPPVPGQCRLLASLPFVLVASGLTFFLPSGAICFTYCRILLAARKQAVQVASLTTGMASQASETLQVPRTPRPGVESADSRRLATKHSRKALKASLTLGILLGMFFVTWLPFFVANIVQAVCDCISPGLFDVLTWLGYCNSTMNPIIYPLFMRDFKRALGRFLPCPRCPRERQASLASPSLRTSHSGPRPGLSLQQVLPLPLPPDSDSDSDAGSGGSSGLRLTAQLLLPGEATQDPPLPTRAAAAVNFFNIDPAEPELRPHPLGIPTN
Text: as §1

[6] = target: T3, Alpha-1A adrenergic receptor (Homo sapiens, UniProt P35348)
T3 sequence (P35348 whole entry): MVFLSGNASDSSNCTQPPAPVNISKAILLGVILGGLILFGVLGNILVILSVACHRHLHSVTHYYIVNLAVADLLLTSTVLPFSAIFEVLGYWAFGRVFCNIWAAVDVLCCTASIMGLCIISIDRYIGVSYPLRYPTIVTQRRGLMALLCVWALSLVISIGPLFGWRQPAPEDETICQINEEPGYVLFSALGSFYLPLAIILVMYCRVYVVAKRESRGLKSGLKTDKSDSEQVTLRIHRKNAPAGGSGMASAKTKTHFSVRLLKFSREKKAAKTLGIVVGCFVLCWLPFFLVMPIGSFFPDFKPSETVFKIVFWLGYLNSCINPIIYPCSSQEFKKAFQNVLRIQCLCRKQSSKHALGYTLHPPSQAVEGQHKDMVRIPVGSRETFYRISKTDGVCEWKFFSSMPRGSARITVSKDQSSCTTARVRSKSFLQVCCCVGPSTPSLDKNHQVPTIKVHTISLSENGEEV
Text: as §1

[7] = target: Beta-1 adrenergic receptor (Homo sapiens, UniProt P08588)
Sequence of Beta-1 adrenergic receptor (P08588 whole entry): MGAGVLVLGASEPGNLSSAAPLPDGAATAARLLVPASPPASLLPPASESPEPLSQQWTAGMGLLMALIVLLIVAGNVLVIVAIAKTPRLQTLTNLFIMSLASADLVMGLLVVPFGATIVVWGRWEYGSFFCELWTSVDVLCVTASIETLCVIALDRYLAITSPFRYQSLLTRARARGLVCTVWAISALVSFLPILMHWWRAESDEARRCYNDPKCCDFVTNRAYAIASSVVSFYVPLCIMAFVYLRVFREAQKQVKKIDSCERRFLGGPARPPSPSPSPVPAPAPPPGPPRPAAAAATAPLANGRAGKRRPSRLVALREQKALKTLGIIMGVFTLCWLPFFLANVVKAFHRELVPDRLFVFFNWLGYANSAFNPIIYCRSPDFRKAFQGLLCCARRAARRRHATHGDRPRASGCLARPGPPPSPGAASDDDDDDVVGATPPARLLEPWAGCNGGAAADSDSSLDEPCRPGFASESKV
Text: as §1

D(1B) dopamine receptor = D(1B) dopamine receptor (Homo sapiens, UniProt P21918)
Text: as §1

D(2) dopamine receptor = D(2) dopamine receptor (Homo sapiens, UniProt P14416)
Sequence of D(2) dopamine receptor (P14416 whole entry): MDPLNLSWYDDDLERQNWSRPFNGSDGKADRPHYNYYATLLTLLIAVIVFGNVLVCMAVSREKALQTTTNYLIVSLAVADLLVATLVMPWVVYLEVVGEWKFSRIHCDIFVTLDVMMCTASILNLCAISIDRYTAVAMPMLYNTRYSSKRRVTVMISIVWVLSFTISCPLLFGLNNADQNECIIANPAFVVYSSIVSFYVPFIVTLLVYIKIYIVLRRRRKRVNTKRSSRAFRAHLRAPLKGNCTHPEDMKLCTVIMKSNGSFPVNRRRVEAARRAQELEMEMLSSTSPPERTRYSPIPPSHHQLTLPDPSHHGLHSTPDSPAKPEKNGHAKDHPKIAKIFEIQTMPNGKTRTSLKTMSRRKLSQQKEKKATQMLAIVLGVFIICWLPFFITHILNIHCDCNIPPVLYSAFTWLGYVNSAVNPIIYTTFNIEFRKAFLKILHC
Text: as §1

[8] = target: T4, Gamma-aminobutyric acid receptor subunit alpha-1 (Homo sapiens, UniProt P14867)
T4 sequence (P14867 whole entry): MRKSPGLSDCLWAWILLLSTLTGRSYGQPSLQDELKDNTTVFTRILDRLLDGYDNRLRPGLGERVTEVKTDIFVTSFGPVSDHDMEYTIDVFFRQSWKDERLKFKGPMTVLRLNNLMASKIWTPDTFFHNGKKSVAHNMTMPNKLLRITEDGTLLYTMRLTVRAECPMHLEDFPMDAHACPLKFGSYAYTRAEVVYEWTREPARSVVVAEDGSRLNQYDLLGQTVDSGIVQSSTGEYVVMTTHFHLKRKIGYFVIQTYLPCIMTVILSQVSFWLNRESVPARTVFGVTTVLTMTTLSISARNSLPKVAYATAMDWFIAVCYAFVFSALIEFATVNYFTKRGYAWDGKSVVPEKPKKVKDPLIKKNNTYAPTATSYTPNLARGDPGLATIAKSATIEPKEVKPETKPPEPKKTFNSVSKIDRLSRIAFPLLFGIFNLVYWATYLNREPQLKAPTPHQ
Text: as §1

Histamine H4 receptor = Histamine H4 receptor (Homo sapiens, UniProt Q9H3N8)
Sequence of Histamine H4 receptor (Q9H3N8 whole entry): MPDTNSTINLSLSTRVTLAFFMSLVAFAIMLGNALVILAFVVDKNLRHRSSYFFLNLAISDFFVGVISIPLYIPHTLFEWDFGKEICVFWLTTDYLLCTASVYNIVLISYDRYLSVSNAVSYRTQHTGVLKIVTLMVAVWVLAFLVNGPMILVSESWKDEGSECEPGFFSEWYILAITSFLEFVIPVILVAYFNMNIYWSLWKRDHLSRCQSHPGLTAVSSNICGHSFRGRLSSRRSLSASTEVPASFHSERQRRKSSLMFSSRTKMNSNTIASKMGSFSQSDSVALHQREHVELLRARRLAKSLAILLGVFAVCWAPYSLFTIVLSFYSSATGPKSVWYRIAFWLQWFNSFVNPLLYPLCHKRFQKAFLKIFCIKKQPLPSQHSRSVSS
Text: as §1

[9] = target: T5, Muscarinic acetylcholine receptor M2 (Homo sapiens, UniProt P08172)
T5 sequence (P08172 whole entry): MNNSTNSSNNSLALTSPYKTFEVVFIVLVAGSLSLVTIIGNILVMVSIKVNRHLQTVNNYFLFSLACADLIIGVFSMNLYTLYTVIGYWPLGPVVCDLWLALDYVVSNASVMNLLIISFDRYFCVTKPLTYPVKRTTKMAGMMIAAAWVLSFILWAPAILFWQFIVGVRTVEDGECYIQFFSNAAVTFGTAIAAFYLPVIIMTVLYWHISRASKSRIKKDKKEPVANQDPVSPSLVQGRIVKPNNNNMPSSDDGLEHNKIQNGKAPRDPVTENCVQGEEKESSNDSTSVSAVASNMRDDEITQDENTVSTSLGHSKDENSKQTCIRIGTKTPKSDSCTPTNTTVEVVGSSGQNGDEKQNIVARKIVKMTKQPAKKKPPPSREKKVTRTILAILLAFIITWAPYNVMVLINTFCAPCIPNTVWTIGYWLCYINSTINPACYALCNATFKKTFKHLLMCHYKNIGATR
Text: as §1

[10] = target: Delta-type opioid receptor (Homo sapiens, UniProt P41143)
Sequence of Delta-type opioid receptor (P41143 whole entry): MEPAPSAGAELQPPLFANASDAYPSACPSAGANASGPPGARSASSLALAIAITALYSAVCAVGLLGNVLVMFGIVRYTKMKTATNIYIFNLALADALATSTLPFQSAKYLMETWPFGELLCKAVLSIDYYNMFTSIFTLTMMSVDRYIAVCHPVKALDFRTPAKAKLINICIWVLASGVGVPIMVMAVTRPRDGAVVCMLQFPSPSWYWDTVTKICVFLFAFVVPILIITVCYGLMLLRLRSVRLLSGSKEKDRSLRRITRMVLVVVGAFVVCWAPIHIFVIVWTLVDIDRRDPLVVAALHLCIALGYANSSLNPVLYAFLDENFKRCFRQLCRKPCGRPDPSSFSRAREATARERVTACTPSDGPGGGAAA
Text: as §1

[11] = target: Glutamate receptor ionotropic, NMDA 2A (Homo sapiens, UniProt Q12879)
Sequence of Glutamate receptor ionotropic, NMDA 2A (Q12879 whole entry): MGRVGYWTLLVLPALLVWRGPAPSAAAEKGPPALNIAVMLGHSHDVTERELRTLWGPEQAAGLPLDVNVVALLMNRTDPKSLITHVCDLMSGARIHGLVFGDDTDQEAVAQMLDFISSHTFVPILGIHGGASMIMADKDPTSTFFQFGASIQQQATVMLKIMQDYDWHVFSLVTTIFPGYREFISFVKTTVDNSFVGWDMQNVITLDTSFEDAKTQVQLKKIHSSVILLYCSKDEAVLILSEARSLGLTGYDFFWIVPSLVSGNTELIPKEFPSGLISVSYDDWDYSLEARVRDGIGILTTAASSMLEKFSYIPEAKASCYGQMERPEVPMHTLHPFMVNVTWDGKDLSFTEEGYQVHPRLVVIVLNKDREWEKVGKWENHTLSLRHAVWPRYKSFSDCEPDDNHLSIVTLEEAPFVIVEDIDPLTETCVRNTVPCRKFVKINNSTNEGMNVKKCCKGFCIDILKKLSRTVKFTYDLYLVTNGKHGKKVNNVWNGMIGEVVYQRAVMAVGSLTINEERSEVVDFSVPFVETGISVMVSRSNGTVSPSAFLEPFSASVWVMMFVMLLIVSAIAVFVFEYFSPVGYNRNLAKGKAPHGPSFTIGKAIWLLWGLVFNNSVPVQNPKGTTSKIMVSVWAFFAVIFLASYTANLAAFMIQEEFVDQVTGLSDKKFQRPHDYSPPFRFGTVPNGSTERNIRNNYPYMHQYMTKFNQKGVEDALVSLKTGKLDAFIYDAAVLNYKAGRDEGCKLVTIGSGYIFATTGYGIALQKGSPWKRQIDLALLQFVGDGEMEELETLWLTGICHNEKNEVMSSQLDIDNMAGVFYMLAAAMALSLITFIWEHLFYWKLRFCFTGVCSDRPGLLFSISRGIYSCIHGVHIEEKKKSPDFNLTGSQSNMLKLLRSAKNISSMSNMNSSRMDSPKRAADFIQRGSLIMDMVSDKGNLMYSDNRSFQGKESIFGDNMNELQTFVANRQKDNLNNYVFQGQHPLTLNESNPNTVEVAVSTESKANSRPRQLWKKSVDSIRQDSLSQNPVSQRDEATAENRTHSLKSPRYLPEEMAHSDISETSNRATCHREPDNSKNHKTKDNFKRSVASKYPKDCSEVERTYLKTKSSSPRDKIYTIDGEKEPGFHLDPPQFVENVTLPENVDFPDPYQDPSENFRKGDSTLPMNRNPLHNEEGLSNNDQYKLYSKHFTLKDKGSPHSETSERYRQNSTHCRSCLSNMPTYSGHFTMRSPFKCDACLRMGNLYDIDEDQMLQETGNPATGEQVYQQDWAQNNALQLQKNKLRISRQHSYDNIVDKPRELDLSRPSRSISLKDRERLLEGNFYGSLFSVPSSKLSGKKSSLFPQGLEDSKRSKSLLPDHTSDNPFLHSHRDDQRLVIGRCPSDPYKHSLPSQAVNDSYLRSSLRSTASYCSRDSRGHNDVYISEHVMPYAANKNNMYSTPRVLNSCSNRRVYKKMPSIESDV
Text: as §1

Mu-type opioid receptor = Mu-type opioid receptor (Homo sapiens, UniProt P35372)
Sequence of Mu-type opioid receptor (P35372 whole entry): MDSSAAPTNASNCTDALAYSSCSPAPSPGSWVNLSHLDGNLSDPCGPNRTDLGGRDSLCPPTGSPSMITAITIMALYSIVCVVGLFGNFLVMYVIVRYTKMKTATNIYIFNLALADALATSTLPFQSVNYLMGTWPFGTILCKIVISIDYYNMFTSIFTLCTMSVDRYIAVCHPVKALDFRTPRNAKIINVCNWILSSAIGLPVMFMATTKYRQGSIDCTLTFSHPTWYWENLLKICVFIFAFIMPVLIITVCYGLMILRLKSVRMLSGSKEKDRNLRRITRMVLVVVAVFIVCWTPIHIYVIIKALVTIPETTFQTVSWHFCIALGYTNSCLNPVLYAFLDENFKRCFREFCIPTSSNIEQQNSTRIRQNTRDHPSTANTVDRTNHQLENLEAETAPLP
Text: as §1

SMILES | Ki [1] [µM] | Ki [2] [µM] | Ki [3] [µM] | Ki [4] [µM] | Ki [5] [µM] | Ki [6] [µM] | Ki [7] [µM] | Ki (D(1B) dopamine receptor) [µM] | Ki (D(2) dopamine receptor) [µM] | Ki [8] [µM] | Ki (Histamine H4 receptor) [µM] | Ki [9] [µM] | Ki [10] [µM] | Ki [11] [µM] | Ki (Mu-type opioid receptor) [µM]
CC(N)Cc1ccc2c(c1)OCO2 (stereo not given) | 3.76 | > 10 | 0.091 | > 10 | > 10 | > 10 | > 10 | > 10 | > 10 | > 10 | > 10 | > 10 | – | – | –
CC[C@H]1C[C@@H]2C[C@H]3c4[nH]c5ccc(OC)cc5c4CCN(C2)[C@@H]13 | > 10 | > 10 | – | > 10 | – | – | > 10 | – | > 10 | > 10 | – | 39.4 | > 10 | 2 | 4.36
CN(C)CCc1c[nH]c2ccccc12 [2-(1H-indol-3-yl)-N,N-dimethylethanamine] | – | 0.093 | – | > 10 | 0.487 | 1.75 | > 10 | > 10 | > 10 | > 10 | > 10 | > 10 | – | – | –
COC(=O)[C@@H]1C[C@H](OC(C)=O)C(=O)[C@H]2[C@@]1(C)CC[C@H]1C(=O)O[C@H](c3ccoc3)C[C@]21C [2S,4aR,6a(R,7R,9S,10aS,10bR)-9-(acetyloxy)-2-(furan-3-yl)dodecahydro-6a,10b-dimethyl-4,10-dioxo-2H-naphtho[2,1-c]pyran-7-carboxylic acid methyl ester] | > 10 | > 10 | > 10 | – | > 10 | > 10 | > 10 | > 10 | > 10 | – | – | > 10 | – | – | –
COc1ccc2[nH]cc(CCN(C)C)c2c1 [3-(2-DIMETHYLAMINOETHYL)-5-METHOXYINDOLE] | – | – | – | – | – | > 10 | > 10 | > 10 | 3.56 | > 10 | – | > 10 | – | – | –
CN(C)CCc1c[nH]c2cccc(O)c12 [4-hydroxy-N,N-dimethyltryptamine] | – | – | – | > 10 | – | > 10 | > 10 | > 10 | > 10 | > 10 | > 10 | > 10 | > 10 | – | > 10
COc1cc(OC)c(OC)cc1CC(C)N (stereo not drawn) [(+/-)1-Methyl-2-(2,4,5-trimethoxy-phenyl)-ethylamine] | > 10 | > 10 | 0.154 | > 10 | > 10 | > 10 | > 10 | > 10 | > 10 | – | > 10 | > 10 | – | – | –
CCN(CC)C(=O)[C@@H]1C=C2c3cccc4[nH]cc(c34)C[C@H]2N(C)C1 [[N-methyl-3H]LSD] | – | 0.0078 | – | > 10 | – | 1.13 | – | – | 0.11 | > 10 | – | – | > 10 | > 10 | > 10
C[C@@H]1C[C@H](C)N1C(=O)C1C=C2c3cccc4[nH]cc(c34)C[C@H]2N(C)C1 (stereo partly drawn) [cis-2a] | 0.0023 | – | 0.044 | > 10 | 0.0129 | 0.529 | – | – | 0.0491 | > 10 | – | – | > 10 | > 10 | > 10
CNC(C)Cc1ccc2c(c1)OCO2 (stereo not given) [mdma] | > 10 | > 10 | 0.5 | > 10 | > 10 | > 10 | > 10 | > 10 | > 10 | > 10 | – | > 10 | – | > 10 | > 10
C[C@@H]1C[C@@H](C)N1C(=O)C1C=C2c3cccc4[nH]cc(c34)C[C@H]2N(C)C1 (stereo not given in full) [rr-2b] | 0.0052 | 0.018 | 0.312 | > 10 | 0.0605 | 5.19 | – | – | 0.264 | > 10 | – | – | > 10 | > 10 | > 10
